Among the data in article PMC6349869, “The palladacycle complex AJ-5 induces apoptotic cell death while reducing autophagic flux in rhabdomyosarcoma cells” (Cell Death Discovery, 2019) are IC50 values, retold here.

Test [1] concerns RH30 and RD cells. Briefly: IC50 of doxorubicin established in the cell lines tested. The format is cell-based. The following applies: Homo sapiens.
The subject of test [2] is RMS cell lines including RD and RH30 cells. More on the design: method as in PMID 10917549, PMID 11742497. Conditions: after 4–5 days of treatment, range of RMS cell lines including RD and RH30; cited from earlier work.

pIC50: −log10 of the molar value. Some results are limits rather than exact numbers.

On to `COc1cccc2c1C(=O)c1c(O)c3c(c(O)c1C2=O)C[C@@](O)(C(=O)CO)C[C@@H]3O[C@H]1C[C@H](N)[C@H](O)[C@H](C)O1` [Doxorubicin, doxorubicin], for which the pIC50 in test [1] is 6.30. As to `N.N.[Cl][Pt][Cl]` [Cisplatin, cisplatin], the pIC50 in test [2] is < 6.30.
